Source: PMC4370192, “Discovery of Specific Inhibitors for Intestinal E. coli β-Glucuronidase through In Silico Virtual Screening” (The Scientific World Journal, 2015)

Key:
[1] = target: T1, E. coli β-glucuronidase (eβG) (Escherichia coli, UniProt P05804); test: In vitro βG-activity assay (pNPG hydrolysis), eβG; assay type: biochemical; conditions: 50 μM compound, pH 7.3, percent of activity vs untreated control
T1 construct: histidine tag (N); made in house; host or cells: E. coli BL21 (DE3)
Description: (§1) Plasmid pRESTB containing βG gene and a histidine tag at the N-terminus was constructed as described. Recombinant βG (human and E. coli) was produced by isopropyl β-D-thiogalactopyranoside (IPTG) induction of BL21 (DE3) bacteria. βG was purified from bacterial supernatants by affinity chromatography on nickels Sepharose 6 Fast Flow (GE Healthcare). The column was washed by phosphate-buffered saline (PBS), with 50 mM imidazole, and βG was eluted by PBS with 250 mM imidazole. The purified βG was desalted on a Sephadex G-25 column equilibrated with PBS and stored at −80°C.
The candidate compounds were purchased from SPECS (The Netherlands). Each candidate was provided as a solid power and dissolved in 100% DMSO (Sigma-Aldrich) to 10 mM as stock. Candidates were screened for their inhibition specificity of eβG versus hβG, which were conducted at pH 7.3 or pH 5.4, in triplicate, respectively. 40 μL purified βG was treated with 10 μL compound solution at 37°C for 30 min and sequentially incubated with 50 μL of pNPG (Sigma-Aldrich) at 37°C for 30 min. Reactions were quenched with 5 μL of 2 N sodium hydroxide (Sigma-Aldrich). Each reaction consisted of 3.75 ng purified βG, 50 μM compound, and 5 mM pNPG in PBS containing 10% DMSO and 0.05% BSA (Sigma-Aldrich). βG-activities were measured by color development of pNP detected on a microplate reader at OD 405 nm. […] For IC50 determination, compounds at various concentrations (100 μM to 0.001 μM) were added.
Supplementary file 740815.f1.pdf: Fifty-nine candidate compounds were acquired from the initial virtually screening which was designed to target the bacterial loop of eβG and its active site. The docking energy scores of 59 candidate compounds measured by the DOCK program are -43 to -55 kcal/mol. (Table S1) The candidate compounds were purchased from SPECS (Zoetermeer, The Netherlands). Each candidate was rovided as a solid power and dissolved in 100% DMSO (Sigma-Aldrich, MO, USA) to 10 mM as stock. Candidates were screening for their inhibition specificity of eβG verse hβG, which were conducted at pH 7.3 or pH 5.4 in triplicate, respectively. 40 µL purified βG was treated with 10 µL compound solution at 37 °C for 30 min, and sequentially incubated with 50 µL of pNPG (Sigma-Aldrich) at 37 °C for 30 min. Reactions were quenched with 5 µL of 2 N sodium hydroxide (Sigma-Aldrich). Each reaction consisted of 3.75 ng purified βG, 50 µM compound, and 5 mM pNPG in PBS containing 10% DMSO and 0.05% BSA (Sigma-Aldrich). βG-activities were measured by color development of pNP detected on a microplate reader at OD 405 nm. […] Especially, the inhibiting ability against eβG activity was >95% in 7 candidates of eβG specific inhibitors (Table S1).
(§2) Fifty-nine candidate compounds were acquired from the initial virtually screening which was designed to target the bacterial loop of eβG and its active site. The docking energy scores of 59 candidate compounds measured by the DOCK program are -43 to -55 kcal/mol. (Table S1) The candidate compounds were purchased from SPECS (Zoetermeer, The Netherlands). Each candidate was provided as a solid power and dissolved in 100% DMSO (Sigma-Aldrich, MO, USA) to 10 mM as stock. Candidates were screening for their inhibition specificity of eβG verse hβG, which were conducted at pH 7.3 or pH 5.4 in triplicate, respectively. 40 μL purified βG was treated with 10 μL compound solution at 37 °C for 30 min, and sequentially incubated with 50 μL of pNPG (Sigma-Aldrich) at 37 °C for 30 min. Reactions were quenched with 5 μL of 2 N sodium hydroxide (Sigma-Aldrich). Each reaction consisted of 3.75 ng purified βG, 50 μM compound, and 5 mM pNPG in PBS containing 10% DMSO and 0.05% BSA (Sigma-Aldrich). βG-activities were measured by color development of pNP detected on a microplate reader at OD 405 nm. […]
percent of βG activity compared with the untreated control.
Especially, the inhibiting ability against eβG activity was >95% in 7 candidates of eβG specific inhibitors (Table S1).
Table S1. […]

human βG (hβG) = target: T2, human βG (hβG) (Homo sapiens, UniProt P08236); test: In vitro βG-activity assay (pNPG hydrolysis), hβG; assay type: biochemical; conditions: pH 5.4, percent of activity vs untreated control
T2 construct: histidine tag (N); made in house; host or cells: E. coli BL21 (DE3)
T2 sequence (P08236 23-651): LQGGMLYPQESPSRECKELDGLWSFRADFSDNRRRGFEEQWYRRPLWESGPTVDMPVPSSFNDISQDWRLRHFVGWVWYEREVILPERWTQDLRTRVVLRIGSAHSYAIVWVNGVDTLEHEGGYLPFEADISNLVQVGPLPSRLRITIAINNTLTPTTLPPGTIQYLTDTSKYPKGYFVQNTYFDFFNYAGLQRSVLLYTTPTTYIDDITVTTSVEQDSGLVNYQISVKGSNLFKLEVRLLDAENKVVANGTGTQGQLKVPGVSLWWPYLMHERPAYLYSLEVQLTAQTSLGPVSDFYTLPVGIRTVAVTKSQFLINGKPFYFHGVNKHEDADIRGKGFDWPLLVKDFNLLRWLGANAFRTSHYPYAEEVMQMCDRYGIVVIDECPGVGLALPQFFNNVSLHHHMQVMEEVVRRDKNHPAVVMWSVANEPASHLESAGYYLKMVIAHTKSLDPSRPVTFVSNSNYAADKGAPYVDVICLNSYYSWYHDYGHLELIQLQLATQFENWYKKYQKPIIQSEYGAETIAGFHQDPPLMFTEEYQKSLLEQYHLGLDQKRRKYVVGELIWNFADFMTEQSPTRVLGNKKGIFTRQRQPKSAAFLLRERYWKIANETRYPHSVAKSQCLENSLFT
Description: as §1
The candidate compounds were purchased from SPECS (The Netherlands). Each candidate was provided as a solid power and dissolved in 100% DMSO (Sigma-Aldrich) to 10 mM as stock. Candidates were screened for their inhibition specificity of eβG versus hβG, which were conducted at pH 7.3 or pH 5.4, in triplicate, respectively. 40 μL purified βG was treated with 10 μL compound solution at 37°C for 30 min and sequentially incubated with 50 μL of pNPG (Sigma-Aldrich) at 37°C for 30 min. Reactions were quenched with 5 μL of 2 N sodium hydroxide (Sigma-Aldrich). Each reaction consisted of 3.75 ng purified βG, 50 μM compound, and 5 mM pNPG in PBS containing 10% DMSO and 0.05% BSA (Sigma-Aldrich). βG-activities were measured by color development of pNP detected on a microplate reader at OD 405 nm.
as §2, with “(Table” for “Fifty-nine candidate compounds were acquired from the initial virtually screening which was designed to target the bacterial loop of eβG and its active site. The docking energy scores of 59 candidate compounds measured by the DOCK program are -43 to -55 kcal/mol. (Table”, “rovided” for “provided”, “µL” for “μL”, “µM” for “μM”
candidate compounds were purchased from SPECS (Zoetermeer, The Netherlands). Each candidate was provided as a solid power and dissolved in 100% DMSO (Sigma-Aldrich, MO, USA) to 10 mM as stock. Candidates were screening for their inhibition specificity of eβG verse hβG, which were conducted at pH 7.3 or pH 5.4 in triplicate, respectively. 40 μL purified βG was treated with 10 μL compound solution at 37 °C for 30 min, and sequentially incubated with 50 μL of pNPG (Sigma-Aldrich) at 37 °C for 30 min. Reactions were quenched with 5 μL of 2 N sodium hydroxide (Sigma-Aldrich). Each reaction consisted of 3.75 ng purified βG, 50 μM compound, and 5 mM pNPG in PBS containing 10% DMSO and 0.05% BSA (Sigma-Aldrich). βG-activities were measured by color development of pNP detected on a microplate reader at OD 405 nm.

T1 sequence (P05804 whole entry): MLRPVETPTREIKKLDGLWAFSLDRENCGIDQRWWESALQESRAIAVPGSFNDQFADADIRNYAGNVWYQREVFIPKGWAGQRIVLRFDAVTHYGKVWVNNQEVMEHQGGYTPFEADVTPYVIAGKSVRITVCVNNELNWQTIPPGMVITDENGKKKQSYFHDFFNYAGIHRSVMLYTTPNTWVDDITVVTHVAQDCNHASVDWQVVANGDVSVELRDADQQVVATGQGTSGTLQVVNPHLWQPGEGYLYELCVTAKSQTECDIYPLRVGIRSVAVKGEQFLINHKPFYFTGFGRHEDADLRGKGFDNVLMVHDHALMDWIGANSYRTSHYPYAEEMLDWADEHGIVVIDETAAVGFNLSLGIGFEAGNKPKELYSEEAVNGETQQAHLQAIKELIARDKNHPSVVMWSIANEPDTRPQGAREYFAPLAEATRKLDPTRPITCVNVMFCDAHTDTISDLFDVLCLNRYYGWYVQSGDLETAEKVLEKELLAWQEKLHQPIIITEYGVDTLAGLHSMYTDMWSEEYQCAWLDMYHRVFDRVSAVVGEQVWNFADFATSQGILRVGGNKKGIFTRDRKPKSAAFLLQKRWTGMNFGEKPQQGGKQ

Structure (SMILES)	eβG activity (%) with 50 μM compound [1] [%]	hβG activity (%) with 50 μM compound (human βG (hβG)) [%]
COc1cc(C(=O)NCC(=N)N)cc(OC)c1OC [Compound 0015]	17.59	108.51
O=C(O)C1CC=CCC1C(=O)Nc1ccc2ccccc2c1 (stereo not shown) [Compound 4043]	32.98	81.24
CC1=NN(c2ccc(Cl)cc2)C(=O)/C1=C\N1CCN(C)CC1 [Compound 6003]	9.76	93.06
CN1CCN(CC(=O)Nc2c(C#N)cnn2-c2ccccc2)CC1 [Compound 0220]	47.15	113.55
CNC(=S)Nn1cnc2c(cnn2-c2ccccc2)c1=N [Compound 2138]	19.23	107.27
CCc1sc(NC(=O)C2CCCCC2C(=O)O)nc1-c1ccccc1 (stereo not shown) [Compound 1501]	27.85	105.12
Cc1ccc2nc(CSc3nc(-c4ccncc4)ccc3C#N)[nH]c2c1 [Compound 9665]	8.97	100.83
Cc1cc(NS(=O)(=O)c2ccc(NC(=O)c3cc(Cl)ccc3[N+](=O)[O-])cc2)nc(C)n1 [Compound 5003]	17.02	105.54
CCOC(=O)c1ccc(NC(=S)N2CCN(C)CC2)cc1 [Compound 1089]	47.22	119.17
COc1ccc(N2C(=O)CC(NC3CCCCNC3=O)C2=O)cc1 (stereo not shown) [Compound 7007]	44.30	105.79
COc1cc2ccccc2cc1C(=O)N1CCN(C)CC1 [Compound 0030]	58.19	111.74
